Laboratory results published in patent US5773236A, “Assay for glutathiane transferase using polyhaloaryl-substituted reporter molecules” (Molecule Probes, Inc., priority 1997, dated 1998).
Where a name gives a salt, the structure may show the parent alone.

Assays:
3T3 or BPAE cells [1] = assay: Intracellular products of tracers by gel electrophoresis (Example 67); type: cell-based; conditions: 5 μM, 1 hr, 37° C.
Procedure: (§1) Cultures of either 3T3 or BPAE cells are treated with 5 μM solutions of either Compound 4,5-(pentachlorobenzoylamino)fluorescein diacetate, 5-pentafluorobenzenesulfonylamino)fluorescein diacetate, or 5-chloromethylfluorescein diacetate (CMFDA, Molecular Probes, Inc.) for 1 hr at 37° C. The cells are spun, resuspended in distilled water and lysed by repeated freezing and thawing. 20 μL of the cell lysate supernatant is diluted with 30 μL of SDS-PAGE sample buffer, containing β-mercaptoethanol. The cell pellets are dispersed in 50 μL of water. 20 μL of each sample is added to 30 μL of the same sample buffer. The samples are heated at 95° C. for 5 min. and loaded on 4-20% polyacrylamide gradient minigels. At the completion of the run the gels are observed with UV excitation.

3T3 or BPAE cells [2] = assay: Intracellular products of tracers by TLC and HPLC (Example 67); type: cell-based; conditions: 5 μM, 1 hr, 37° C.
Procedure: Reaction mixtures with and without GST using Compound 1 as the substrate, are prepared as described in Example 48. The solutions are mixed overnight with three volumes of ethyl acetate followed by centrifugation at 15,000×g for 30 min to separate the organic and aqueous layers. HPLC analysis using a Rainin HPLC equipped with a C18, 5 μm, 100 Å, 4.6×250 mm MICROSORB-MV reverse phase column. Products are separated in 30 min with a gradient of 5% to 95% solvent B in Solvent A at a flow rate of 1 mL/min, where solvent A is 0.1M triethylammonium acetate, pH 7.0, and solvent B is acetonitrile (see FIG. 1). Products are detected by reading the absorbance at 500 nm. Peaks are identified and, if desired, quantitated by comparing retention times with authentic samples of the glutathione adduct of Compound 45 (Example 45).
as §1
Alternatively, the above samples are analyzed by TLC and by HPLC, as described in Examples 48 and 52. […] Coinjection with authentic Compound 1 confirms the identity of the substrate peak and coinjection with the authentic Compound 1-GSH adduct (Example 45) confirms the identify of the other fluorescent product.

alkaline phosphatase = assay: Detection of alkaline phosphatase on a membrane blot (Example 63); type: biochemical; conditions: nitrocellulose; for amount of enzyme detected, before washing: 35 minutes, 37° C., prior to washing the membranes
Procedure: The reagents used are: 1) 5-(pentafluorobenzoylamino)fluorescein diphosphate, tetraammonium salt (Compound 47; Example 47), 10 mM in 0.1M Tris, pH 8.5; 2) fluorescein diphosphate (FDP; Molecular Probes, #F-2999), 10 mM in 0.1M Tris, pH 8.5; 3) BLOCKER Blotto in PBS (Pierce Chemical Company); 4) 0.2M glycine, pH 8.8; 5) 0.05M MgCl2, 6) 0.1M Tris, pH 8.5; 7) wash buffer: 20 mM Tris, 137 mM NaCl, 0.5% TWEEN 20, pH 7.5. Stock solutions of alkaline phosphatase are diluted in 0.1M Tris, pH 8.5 to obtain solutions with the following concentrations: 1 μg/μL, 0.5 μg/μL, 0.25 μg/μL, 0.1 μg/μL, 50 ng/μL, 10 ng/μL, 1 ng/μL and 0 ng/μL. 1 μL of each diluted solution is spotted on a nitrocellulose membrane (1"×1"), pore size 0.45 μM, and allowed to dry overnight at room temperature. Blocking is done by treating both nitrocellulose blots with 2 mL of supernatant liquid from the BLOCKER Blotto solution for 30 minutes at room temperature. The following mixture is prepared: 1.5 mL of 0.2M glycine, pH 8.8+0.4 mL of 0.05M MgCl2 +100 μL of 0.1M Tris, pH 8.5+10 μL of 10 mM substrate stock solution (either PFB-FDP or FDP). Blotto supernatant on the blots is replaced with the above mixture and incubation is carried out for 35 minutes at 37° C. A Polaroid image of the blots is obtained by illuminating with reflected UV light at 254 nm. Exposure time is 5-10 sec with an aperture setting of F=4.5 and filter #15 is used to block unwanted light. Both Compound 47 and FDP can detect ~50 ng of the enzyme prior to washing the membranes. The blots are washed twice for 5 minutes each time with 2 mL of wash buffer and an image is obtained using the same settings and exposure times as described above.

CRE BAG 2 cells [3] = assay: Peptidase substrates in live cells, fluorescence microscopy (Example 59); type: cell-based; conditions: 1 μM, 0.5 μM or 0.1 μM, 37° C., 30 minutes
Procedure: CRE BAG 2 cells obtained from American Type Culture Collection Co., Rockville, Md. are used. They are grown in a humidified atmosphere of 5% CO2 in D-MEM supplemented with 10% calf serum, 50 μg/mL gentamycin, 300 μg/mL L-glutamine and 10 mM HEPES, pH 7.4. 1 mM stock solutions of Compound 13-Leu (Example 13) and Compound 13-Arg substrate are prepared in DMSO. CRE BAG 2 cells are trypsinized, washed with phosphate-buffered saline, pH 7.2 and resuspended in 1 mL of the same buffer. 1 μL, 0.5 μL or 0.1 μL of the stock reagents is added to 1 mL of the cell suspension to obtain a final concentration of 1 μM, 0.5 μM or 0.1 μM. Incubation is carried out at 37° C. for 30 minutes. Cells are centrifuged to form a pellet, the supernatant is discarded and the cells are washed with PBS, pH 7.2 and suspended in the same buffer. Cells are mounted on slides and observed by fluorescence microscopy using filters optimized for fluorescein.

CRE BAG 2 cells [4] = assay: Marker gene expression by flow cytometry, CRE BAG 2 (Example 62); type: cell-based; conditions: 0.2 mM dye, 37° C., 30 minutes
Procedure: NIH-3T3 and CRE BAG2 cells are maintained as in Example 61. A 10 mM stock solution of (((3 -(2-pentafluorobenzoyl)amino)ethyl)amino)carbonyl)-umbelliferyl β-D-galactopyranoside (Compound 37; Example 37) is prepared in DMF. A 10 mM stock solution of 4-chloromethylcoumarin β-D-galactopyranoside (CMCG; Molecular Probes #D-2921) is prepared in a 1:1 mixture of DMSO and water. NIH-3T3 and CRE BAG2 cells are trypsinized, washed with phosphate buffered saline (PBS), pH 7.2 and resuspended in D-MEM with 10% BCS. To separate 1 mL cell suspensions are added the dye stock solutions to obtain final concentrations of 0.2 mM dye. Incubation is carried out at 37° C. for 30 minutes. Cells are centrifuged to form a pellet, the supernatant is discarded and the cells are washed twice with PBS, pH 7.2 and suspended in the same buffer. Cells are analyzed by flow cytometry using a Becton-Dickinson FACS Vantage flow cytometer. […] However, CRE BAG 2 cells stained with the Compound 37 show fluorescence that is greater than 25-fold that shown by autofluorescent control cells. For the CRE BAG 2 cells stained with CMCG, the fluorescence intensity is only 8-fold greater than that of the autofluorescent control cells.

[5] = system: glutathione transferase (GST); assay: Reactivity with glutathione catalyzed by glutathione transferase, TLC (Example 50); type: biochemical
Procedure: The suitability of Compound 1 (Example 1) and 5-(pentachlorobenzoylamino)fluorescein (Compound 48) as substrates for glutathione transferase (GST) in the presence of excess glutathione (GSH) is tested in vitro as follows: 5 mM GSH, 0.5 mM substrate (Compound 1 or Compound 48) and 20 micrograms GST (Sigma #G-6511, 70 units/mg) are combined in 0.1M phosphate buffer, pH 8.0, for 1 hour at 37° C. The reaction is terminated by spotting approximately 3 μL on silica gel TLC plates. The plate is developed using 1-butanol: methanol: water (3:1:1). […] Analysis of the reaction mixture by HPLC as in Example 52 confirms that the reaction product of Compound 1 with GSH is identical to the authentic Compound 1-GSH adduct as prepared in Example 45 (Compound 45).

NIH-3T3 cells = assay: Hydrolysis of esterase substrates and product retention in live cells, flow cytometry (Example 65); type: cell-based
Procedure: NIH-3T3 cells obtained from American Type Culture Collection Co., Rockville, Md. are used. They are grown in a humidified atmosphere of 5% CO2 in D-MEM supplemented with 10% bovine calf serum (BCS), 50 μg/mL gentamycin, 300 μg/mL L-glutamine and 10 mM HEPES, pH 7.4. Stock solutions of Compound 4 (Example 3), 10 mM in DMSO, and Compound 48 (Example 50), 5 mM in DMSO, are prepared. NIH-3T3 cells are trypsinized, washed with phosphate-buffered saline (PBS), pH 7.2 and resuspended in D-MEM with 10% BCS. To 1 mL of the cell suspension is added the dye stock solution to obtain a final dye concentration of 0.1 mM. Incubation is carried out at 37° C. for 30 minutes followed by incubation on ice for 30 minutes. Cells are centrifuged to form a pellet, the supernatant is discarded and the cells are washed twice with PBS, pH 7.2 and suspended in the same buffer. Cells are analyzed by flow cytometry using the Becton-Dickinson FACS Vantage flow cytometer. After analysis on the flow cytometer, cells are placed at 37° C. and analyzed by flow cytometry at frequent intervals over a period of 75 minutes. Cells stained with either of the dyes are at least 20-fold brighter than the autofluorescent control cells. Approximately 45% of Compound 4 and 35% of Compound 48 are still retained by the cells after 75 minutes of incubation at 37° C.

[6] = system: glutathione S-transferase; assay: Other derivatives tested as GSH/GST substrates, TLC (Example 54); type: biochemical; conditions: 0.2-0.5 mM compound in 50 mM MOPS, pH 7.5, TLC
Procedure: The reaction is then stopped by adding 10% H2 O2.
The PHA compound (ethanol stock solution, 2 mM) and reduced glutathione (phosphate buffer stock solution, 5 mM) are incubated under the same conditions as described above without addition of glutathione S-transferase.
Commercial precast silica gel TLC plates are used to follow both the enzymatic reaction and the blank control reaction. […] UV absorbance by the PHA substituent always permits detection of both the compound and any glutathione adduct by fluorescence quenching when the TLC sheet is illuminated with 254-nm radiation. Fluorescent compounds can be directly detected using appropriate UV or visible illumination. […] Furthermore, the intensity of the signal on the TLC sheet often can be enhanced by methods well known in the art, such as by application of a phosphomolybdate spray, iodine vapors or a similar detection reagent. Radioactive products can be directly detected and quantitated by exposure to a suitable film using methods well known in the art.

Which results are given for `CC(=O)Oc1ccc2c(c1)Oc1cc(OC(C)=O)ccc1C21OC(=O)c2cc(CCl)ccc21` [CMFDA, 5-chloromethylfluorescein diacetate, reference compound]?
protein adduct bands on gel (3T3 or BPAE cells [1]): multiple fluorescent bands; products by HPLC (3T3 or BPAE cells [2]; HPLC): the glutathione adduct and additional small peaks; products by TLC (3T3 or BPAE cells [2]): multiple TLC bands

What does the source list for `O=C1OC2(c3ccc(OP(=O)(O)O)cc3Oc3cc(OP(=O)(O)O)ccc32)c2ccccc21` [FDP, fluorescein diphosphate, reference compound]?
amount of enzyme detected, before washing (alkaline phosphatase): ~ 50 ng; detection of enzyme after washing (alkaline phosphatase; washed twice for 5 minutes): unable to detect the presence of any enzyme

`CC(C)C[C@H](N)C(=O)Nc1ccc2c(c1)Oc1cc(NC(=O)c3c(F)c(F)c(F)c(F)c3F)ccc1C21OC(=O)c2ccccc21` (stereo partly drawn) [Compound 13-Leu, Rhodamine 110, pentafluorobenzoyl amide, L-leucine amide, hydrochloride] was tested. Which “staining of cells, fluorescence microscopy” value (CRE BAG 2 cells [3]) did it give?
The value was “punctate green fluorescence associated with organelles”.

For `O=c1cc(CCl)c2ccc(O[C@@H]3O[C@H](CO)[C@H](O)[C@H](O)[C@H]3O)cc2o1` [CMCG, 4-chloromethylcoumarin β-D-galactopyranoside, reference compound], which “fluorescence relative to autofluorescent control cells” value (CRE BAG 2 cells [4]) is on record?
The value was 8 fold.

How did the “amount of enzyme detected, before washing” value (alkaline phosphatase) turn out when `O=C1OC2(c3ccc(OP(=O)(O)O)cc3Oc3cc(OP(=O)(O)O)ccc32)c2ccc(NC(=O)c3c(F)c(F)c(F)c(F)c3F)cc21` [Compound 47, 5-(pentafluorobenzoylamino)fluorescein diphosphate, tetraammonium salt] was run?
Its value is ~ 50 ng.

And the “amount of enzyme detected, after washing” value (alkaline phosphatase; washed twice for 5 minutes, per spot)?
The value was ~ 50 ng.

How did the “fluorescent bands on gel (region of the tracking dye)” value (3T3 or BPAE cells [1]) turn out when `CC(=O)Oc1ccc2c(c1)Oc1cc(OC(C)=O)ccc1C21OC(=O)c2cc(NS(=O)(=O)c3c(F)c(F)c(F)c(F)c3F)ccc21` [5-pentafluorobenzenesulfonylamino)fluorescein diacetate] was run?
The value was “Two closely spaced green fluorescent bands”.

What about the “protein adduct bands on gel” value (3T3 or BPAE cells [1]) of the same compound?
Its value is “No other band corresponding to proteins is visible”.

What about the “products by TLC” value (3T3 or BPAE cells [2]) of the same compound?
The value was “formation of a GSH adduct”.

Which “adduct formation with glutathione in presence of GST” value ([5]; 5 mM GSH, 0.5 mM substrate, 20 micrograms GST, pH 8.0, 1 hour, 37° C.) does the source give for `O=C1OC2(c3ccc(O)cc3Oc3cc(O)ccc32)c2ccc(NC(=O)c3c(Cl)c(Cl)c(Cl)c(Cl)c3Cl)cc21` [Compound 48, 5-(pentachlorobenzoylamino)fluorescein] here?
The value was “does not form a new adduct”.

What about the “reaction in control without GST” value ([5]; GST omitted) of the same compound?
The value was “very low or no reaction”.

And the “brightness versus autofluorescent control cells” value (NIH-3T3 cells; 0.1 mM dye, 37° C., 30 minutes then on ice 30 minutes)?
Its value is “at least 20 fold”.

And the “dye retained by the cells” value (NIH-3T3 cells; after 75 minutes of incubation at 37° C.)?
The value was about 35%.

Which “fluorescent bands on gel (region of the tracking dye)” value (3T3 or BPAE cells [1]) does the source give for `CC(=O)Oc1ccc2c(c1)Oc1cc(OC(C)=O)ccc1C21OC(=O)c2cc(NC(=O)c3c(Cl)c(Cl)c(Cl)c(Cl)c3Cl)ccc21` [5-(pentachlorobenzoylamino)fluorescein diacetate] here?
Its value is “a single band in the region of the tracking dye”.

And the “protein adduct bands on gel” value (3T3 or BPAE cells [1])?
The value was “do not shown a protein adduct”.

What about the “products by TLC” value (3T3 or BPAE cells [2]) of the same compound?
Its value is “Only a single, fast-moving fluorescent band corresponding to authentic 5-(pentachlorobenzoylamino)fluorescein”.

Which glutathione adducts detected [6] does the source give for `O=C1OC2(c3ccc(O)cc3Oc3cc(O)ccc32)c2ccc(N3C(=O)c4c(F)c(F)c(F)c(F)c4C3=O)cc21` [Compound 28, 5-tetrafluorophthalimidylfluorescein] here?
Its glutathione adducts detected is “detectable glutathione adducts”.
